The results in this text go back to a melting point compilation (Tetko et al.).

Molecules are shown by their SMILES.

For the data set the following is noted: a range is the spread between reports.

For the compound `OCc1cccc(O)c1`, the melting point is 71 to 73 °C.
As for `CCc1cc(C(C)(C)C)c(O)c(C(C)(C)C)c1`, the figure is 43 to 44 °C; as for `S=c1nc[nH]c2nc[nH]c12`, 313 to 314 °C; as for `CC(C)=C(C)C(C)C`, -113 °C.
As for `N#CCCCl`, the figure is -51 to -50 °C; as for `O=C(c1ccccc1)c1ccccn1`, 42 to 43 °C; as for `c1ccc(-c2nc(-c3ccccc3)c(-c3ccccc3)[nH]2)cc1`, 275 to 276 °C.
As for `O=C1CCC(=O)O1`, the figure is 119 to 120 °C; as for `CCCCCCCCCCCCS`, -8 to -7 °C; as for `COC(=O)c1ccc(I)cc1`, 115 °C.
As to `N#Cc1c[nH]c2ccccc12`, the melting point came out at 180 °C.
Compound `CCCCCCCCCCc1ccccc1` gave a melting point of -14.4 to -14 °C.
Regarding `CC(=O)c1ccncc1`, the melting point fell in the range of 15 to 16 °C.
The value for `CC(=O)Nc1ccc(C)cc1` was 149 to 152 °C; that for `Nc1ccncc1` was 158 to 159 °C; that for `CC#CC(=O)O` was 77 to 78 °C.
The compound `CC(C)C1CCCC1` had a melting point of -111 °C.
As for `CCCC(C)Br` (configuration not stated), the figure is -96 to -95.5 °C; as for `N#CC(Br)(Br)C(N)=O`, 124 °C; as for `C1CCCCCCCCCCC1`, 59 to 61 °C.
The value for `CCCCNC(=O)NS(=O)(=O)c1ccc(C)cc1` was 128 to 129 °C.
As for `Brc1ccc2ccccc2c1`, the figure is 54 to 59 °C; as for `Cc1occc(=O)c1O`, 162 to 163 °C.
As for `Oc1cccc(Cl)c1Cl`, the melting point lay in the range of 56 to 59 °C.
`CCOC(=O)C(NC(C)=O)C(=O)OCC` showed a melting point of 96.3 to 98 °C.
As for `Nc1ccc(F)cc1`, the figure is -2 to -0.8 °C; as for `O=C1Cc2ccccc2C(=O)O1`, 142 to 143 °C; as for `NC(=O)C(F)(F)F`, 72.5 to 73 °C.
Consider `Nc1cc([N+](=O)[O-])ccc1Cl`, for which the melting point lay in the range of 118 to 121 °C.
The value for `CC(C)CC(C)(C)C` was -107 °C; that for `O=C(O)CCI` was 81.5 to 82 °C; that for `O=[N+]([O-])c1ccc(O)cc1` was 112 to 115 °C.
Regarding `CNC(=O)CSP(=S)(OC)OC`, the melting point is 51.5 to 52 °C.
The value for `CC1=C(C)CCCC1` was -84.1 to -84 °C.
Turning to `O=C(O)c1ccc(F)cc1F`, the melting point was 188 to 189 °C.
Turning to `CC1=CC(=O)C=C(C)C1=O`, the melting point lay in the range of 70 to 72.5 °C.
The value for `CC(=O)Nc1ccc(F)cc1` was 152 to 154 °C.
As for `Fc1ccccc1`, the figure is -42.2 to -40 °C; as for `CC1CNC(C)CN1` (configuration not stated), 114 to 118 °C.
The value for `c1cc2c3c(cccc3c1)CC2` was 93.4 to 95 °C; that for `OC1CCCCC1O` (configuration not stated) was 100 to 102 °C.
In the case of `c1ccc(Cc2ccncc2)cc1`, the melting point was 10 to 12.4 °C.
On to `CCCCCCCCCCCCCCCCCCCCO`, for which the melting point lay within 64 to 66.1 °C.
The value for `C/C=C/C=O` was -76.5 to -76 °C; that for `COc1cc(C=CCO)ccc1O` was 74 to 76 °C; that for `O=C1C(=O)c2cccc3cccc1c23` was 258 to 261 °C.
As for `COC(C(=O)c1ccccc1)c1ccccc1` (configuration not stated), the figure is 47 to 49.5 °C.
Compound `NS(=O)(=O)c1ccc(Cl)cc1` showed a melting point of 145 to 146 °C.
The value for `BrC1CCCCC1` was -57 to -56.5 °C; that for `O=Cc1cccc([N+](=O)[O-])c1` was 58 to 59 °C; that for `O=C(O)c1cc(Cl)cc(Cl)c1` was 186 to 188 °C.
As for `O=C1c2ccccc2Cc2ccccc21`, the figure is 155 to 157 °C; as for `O=C(O)c1cccc([N+](=O)[O-])c1`, 141 to 142 °C; as for `C=CC`, -185 °C.
Compound `O=[N+]([O-])NC1=NCCN1Cc1ccc(Cl)nc1` returned a melting point of 140 to 144 °C.
As for `CCC1(C(C)C)C(=O)NC(=O)NC1=O`, the figure is 198 to 203 °C; as for `Oc1ccc2c(c1)CCCC2`, 57 to 62 °C.

For orientation: melting point means the temperature, or range, at which the solid turns liquid.
